Where two headings read alike, the source gives them in different places.
Assays:
mouse BACE-1 = details: read-out: IC50 for mouse BACE-1 inhibition; cited from earlier work
[1] = target: Torpedo californica AChE (TcAChE) (Tetronarce californica, UniProt P04058); test: biochemical; assay type: biochemical; details: for Type of inhibition: Lineweaver-Burk, Dixon and Cornish-Bowden plots
Protocol: The enzymatic activity of TcAChE was evaluated spectrophotometrically at room temperature by Ellman’s method[42] using a GE Ultrospec 7000 double beam spectrophotometer. […] The reaction was initiated by addition to the reaction mixture of the substrate acetylthiocoline (Sigma-Aldrich, Milan, Italy). To gain insights into the mechanism of action of 1, 2 and DNP, reciprocal plots of 1/velocity versus 1/[substrate] were constructed at substrate concentration in the 10–200 µM range. Data points are average values of three replicates. Three concentrations of inhibitors were selected for this study: 5, 10, and 20 nM. The plots were assessed by a weighted least-squares analysis that assumed the variance of the velocity (v) to be a constant percentage of v for the entire data set. Calculation of the inhibitor constant (Ki) value was carried out by re-plotting slopes of lines from the Lineweaver–Burk plot versus the inhibitor concentration and Ki was determined as the intersect on the negative x-axis. The apparent Ki’ (dissociation constant for the enzyme–substrate–inhibitor complex) value was determined by plotting the apparent 1/vmax versus inhibitor concentration. Data analyzes were performed with Graph 4.4.2.

Torpedo californica AChE (TcAChE), sequence (P04058 22-586): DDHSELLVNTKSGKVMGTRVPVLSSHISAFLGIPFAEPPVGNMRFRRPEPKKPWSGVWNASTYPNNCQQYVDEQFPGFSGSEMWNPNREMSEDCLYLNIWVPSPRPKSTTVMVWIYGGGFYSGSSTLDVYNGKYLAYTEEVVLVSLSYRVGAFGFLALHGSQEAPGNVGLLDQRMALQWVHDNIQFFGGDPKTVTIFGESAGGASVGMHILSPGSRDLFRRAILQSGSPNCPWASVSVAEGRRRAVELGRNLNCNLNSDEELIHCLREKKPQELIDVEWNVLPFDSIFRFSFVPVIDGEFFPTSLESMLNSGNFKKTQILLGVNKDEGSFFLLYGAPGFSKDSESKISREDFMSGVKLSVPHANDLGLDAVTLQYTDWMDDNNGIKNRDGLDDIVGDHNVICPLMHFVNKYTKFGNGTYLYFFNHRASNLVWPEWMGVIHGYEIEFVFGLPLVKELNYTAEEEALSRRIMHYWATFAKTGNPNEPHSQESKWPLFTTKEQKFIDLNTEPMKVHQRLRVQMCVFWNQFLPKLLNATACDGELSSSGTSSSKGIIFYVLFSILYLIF

Question: Which Ki [1] does the source give for `COc1cc2c(cc1OC)C(=O)/C(=C/C1CCN(Cc3ccccc3)CC1)C2` [compound 1] here?
Answer: Its Ki is 11.1 ± 2.88 nM.

Question: What about the Type of inhibition [1] of the same compound?
Answer: Its Type of inhibition is “mixed-type inhibition”.

Question: And the IC50 (mouse BACE-1)?
Answer: The IC50 was 697 nM.

Question: With `COc1ccc2c(c1)C/C(=C\C1CCN(Cc3ccccc3)CC1)C2=O` [compound 2] as the compound, how does the Type of inhibition [1] read?
Answer: Its Type of inhibition is “mixed-type inhibition”.

Question: And the Ki ([1]; acetylthiocholine 10–200 µM, inhibitor 5, 10, 20 nM, K-phosphate buffer pH 7.0, room temperature, read-out: Ki (dissociation constant for free enzyme))?
Answer: Its Ki is 29.9 ± 1.12 nM.

Question: What about the IC50 (mouse BACE-1) of the same compound?
Answer: The IC50 was 333 nM.

Reference: PMC6009889, “Kinetic and structural studies on the interactions of Torpedo californica acetylcholinesterase with two donepezil-like rigid analogues” (Journal of Enzyme Inhibition and Medicinal Chemistry, 2018)
